Experimental data published in US20100226853A1 (priority 2007, published 2010).

Assays:
[1] = Protein binding assay, serum; format: in vitro ADME; details: fresh human serum
Procedure: Protein binding of the radiotracers were determined adding 37 kBq (1 μCi) of each radioligand to samples of 1% bovine serum albumin and 1 mL of fresh human serum. The protein was precipitated by adding 1 mL of ice cold 20% trichloroacetic acid and the suspension centrifuged and washing with 1 mL of 20% ice cold trichloroacetic acid. The protein pellets and supernatants were counted in a gamma counter to determine the protein binding of the radioligands.

ABL = ABL (Homo sapiens, UniProt P00519); format: biochemical; set-up: purchased Invitrogen; details: mean of three experiments; read-out: IC50, Abl protein
Procedure: Kinase was preincubated with inhibitor at 37° C. for 10 min prior to starting the reaction upon addition of ATP; Assay was carried out in 384 well clear plates (Corning) and absorbance was measured on SpectraMax plate reader (Molecular Devices). Reaction rates were plotted against inhibitor concentration and fitted using SigmaPlot 9.0 (Systat Software Inc.).

SYK = target: T1, SYK (Homo sapiens, UniProt P43405); experiment: QuickScout ELISA kinase panel; format: biochemical; details: read-out: % Inhibition of Kinase Activity, SYK
T1 construct: purchased Carna Biosciences (Kobe, Japan), QuickScout service
From the text: (§1) An ELISA-based assay was used in which the phosphorylation of an oligopeptide substrate was detected by an HRP-conjugated anti-p-Tyr (PY20) probe.

KDR = target: T2, KDR (Homo sapiens, UniProt P35968); experiment: QuickScout ELISA kinase panel; format: biochemical; details: Compound 5 at 10 nM; negative = enhanced phosphorylation
T2 construct: purchased Carna Biosciences (Kobe, Japan), QuickScout service
From the text: as §1

KIT = target: T3, KIT (Homo sapiens, UniProt P10721); experiment: QuickScout ELISA kinase panel; format: biochemical
T3 construct: purchased Carna Biosciences (Kobe, Japan), QuickScout service
T3 sequence (P10721 26-976): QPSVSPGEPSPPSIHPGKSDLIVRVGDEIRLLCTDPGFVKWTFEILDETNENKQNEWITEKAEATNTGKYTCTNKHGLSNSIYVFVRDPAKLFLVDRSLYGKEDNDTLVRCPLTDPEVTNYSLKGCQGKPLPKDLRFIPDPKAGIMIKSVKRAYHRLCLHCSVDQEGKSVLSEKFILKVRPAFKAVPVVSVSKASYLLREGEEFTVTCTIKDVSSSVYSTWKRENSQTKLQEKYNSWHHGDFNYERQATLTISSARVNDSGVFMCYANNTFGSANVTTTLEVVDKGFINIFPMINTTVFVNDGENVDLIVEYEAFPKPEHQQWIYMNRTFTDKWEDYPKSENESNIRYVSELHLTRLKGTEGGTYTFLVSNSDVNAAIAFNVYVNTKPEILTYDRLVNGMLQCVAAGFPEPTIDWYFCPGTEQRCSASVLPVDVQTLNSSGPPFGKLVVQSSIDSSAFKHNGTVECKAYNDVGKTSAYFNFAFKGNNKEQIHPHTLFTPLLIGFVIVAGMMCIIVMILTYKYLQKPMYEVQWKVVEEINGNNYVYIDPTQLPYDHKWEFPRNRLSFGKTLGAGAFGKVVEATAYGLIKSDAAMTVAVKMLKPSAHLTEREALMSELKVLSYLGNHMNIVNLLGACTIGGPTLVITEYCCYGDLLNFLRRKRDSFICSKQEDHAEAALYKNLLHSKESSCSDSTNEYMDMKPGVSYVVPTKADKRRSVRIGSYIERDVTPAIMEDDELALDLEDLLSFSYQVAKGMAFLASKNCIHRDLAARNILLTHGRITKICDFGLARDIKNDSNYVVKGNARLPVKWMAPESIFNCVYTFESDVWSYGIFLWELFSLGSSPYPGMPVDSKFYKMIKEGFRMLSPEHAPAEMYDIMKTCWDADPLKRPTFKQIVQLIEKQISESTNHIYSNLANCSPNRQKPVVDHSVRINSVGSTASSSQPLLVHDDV
From the text: as §1

FAK = target: T4, FAK (Homo sapiens, UniProt Q05397); experiment: QuickScout ELISA kinase panel; format: biochemical; details: read-out: % Inhibition of Kinase Activity, FAK
T4 construct: purchased Carna Biosciences (QuickScout service)
From the text: as §1

EGFR = target: T5, EGFR (Homo sapiens, UniProt P00533); experiment: QuickScout ELISA kinase panel; format: biochemical; details: Compound 5 at 10 nM
T5 construct: purchased Carna Biosciences (QuickScout service)
From the text: as §1

TIE2 = target: T6, TIE2 (Homo sapiens, UniProt Q02763); experiment: QuickScout ELISA kinase panel; format: biochemical; details: Compound 5 at 10 nM; negative = enhanced phosphorylation
T6 construct: purchased Carna Biosciences (Kobe, Japan), QuickScout service
From the text: as §1

IGF1R = target: T7, IGF1R (Homo sapiens, UniProt P08069); experiment: QuickScout ELISA kinase panel; format: biochemical; details: Compound 5 at 10 nM
T7 construct: purchased Carna Biosciences (QuickScout service)
From the text: as §1

FGFR1 = target: T8, FGFR1 (Homo sapiens, UniProt P11362); experiment: QuickScout ELISA kinase panel; format: biochemical; details: Compound 5 at 10 nM
T8 construct: purchased Carna Biosciences (QuickScout service)
From the text: as §1

TRKA = target: T9, TRKA (Homo sapiens, UniProt P04629); experiment: QuickScout ELISA kinase panel; format: biochemical; details: Compound 5 at 10 nM; negative = enhanced phosphorylation
T9 construct: purchased Carna Biosciences (Kobe, Japan), QuickScout service
T9 sequence (P04629 33-796): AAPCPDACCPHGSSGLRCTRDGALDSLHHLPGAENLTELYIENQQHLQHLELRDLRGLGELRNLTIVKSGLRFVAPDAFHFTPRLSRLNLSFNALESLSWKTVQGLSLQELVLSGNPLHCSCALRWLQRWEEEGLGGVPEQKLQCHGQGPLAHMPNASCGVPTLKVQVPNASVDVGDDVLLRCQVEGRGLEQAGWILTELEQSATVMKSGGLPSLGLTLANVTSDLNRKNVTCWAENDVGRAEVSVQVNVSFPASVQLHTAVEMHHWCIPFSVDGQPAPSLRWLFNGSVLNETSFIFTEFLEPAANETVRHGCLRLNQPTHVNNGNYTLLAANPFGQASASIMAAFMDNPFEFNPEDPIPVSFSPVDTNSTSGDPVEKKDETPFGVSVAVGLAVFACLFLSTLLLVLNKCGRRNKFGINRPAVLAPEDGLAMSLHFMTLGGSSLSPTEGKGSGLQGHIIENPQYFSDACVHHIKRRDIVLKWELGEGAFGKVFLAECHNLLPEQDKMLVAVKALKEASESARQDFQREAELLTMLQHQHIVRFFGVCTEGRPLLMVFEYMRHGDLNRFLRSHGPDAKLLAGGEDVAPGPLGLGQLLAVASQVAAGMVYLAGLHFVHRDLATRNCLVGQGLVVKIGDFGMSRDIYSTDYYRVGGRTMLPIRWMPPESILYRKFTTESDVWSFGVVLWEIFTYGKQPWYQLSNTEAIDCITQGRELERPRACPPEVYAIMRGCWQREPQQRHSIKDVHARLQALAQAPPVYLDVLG
From the text: as §1

CSK = target: T10, CSK (Homo sapiens, UniProt P41240); experiment: QuickScout ELISA kinase panel; format: biochemical; details: Compound 5 at 10 nM
T10 construct: purchased Carna Biosciences (QuickScout service)
T10 sequence (P41240 whole entry): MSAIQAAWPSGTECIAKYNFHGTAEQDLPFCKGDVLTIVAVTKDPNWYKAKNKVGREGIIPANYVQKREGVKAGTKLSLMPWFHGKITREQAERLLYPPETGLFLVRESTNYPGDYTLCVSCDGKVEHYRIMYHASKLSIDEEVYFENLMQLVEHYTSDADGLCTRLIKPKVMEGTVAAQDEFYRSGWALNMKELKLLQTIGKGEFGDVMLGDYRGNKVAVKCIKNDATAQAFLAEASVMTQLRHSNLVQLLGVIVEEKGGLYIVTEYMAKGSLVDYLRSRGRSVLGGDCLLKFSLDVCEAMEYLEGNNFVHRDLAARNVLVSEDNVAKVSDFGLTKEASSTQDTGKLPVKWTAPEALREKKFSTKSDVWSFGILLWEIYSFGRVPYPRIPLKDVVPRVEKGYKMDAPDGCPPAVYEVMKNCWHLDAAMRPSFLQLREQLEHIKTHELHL
From the text: (§2) . […] An ELISA-based assay was used in which the phosphorylation of an oligopeptide substrate was detected by an HRP-conjugated anti-p-Tyr (PY20) probe. […]. The data appears in Table 2 in Example 3.

EphB4 = target: T11, EphB4 (Homo sapiens, UniProt P54760); experiment: QuickScout ELISA kinase panel; format: biochemical; details: Compound 5 at 10 nM
T11 construct: purchased Carna Biosciences (QuickScout service)
From the text: as §2

ACK = target: T12, ACK (Homo sapiens, UniProt Q07912); experiment: QuickScout ELISA kinase panel; format: biochemical; details: Compound 5 at 10 nM
T12 construct: purchased Carna Biosciences (QuickScout service)
From the text: as §2

TYRO3 = target: T13, TYRO3 (Homo sapiens, UniProt Q06418); experiment: QuickScout ELISA kinase panel; format: biochemical; details: Compound 5 at 10 nM
T13 construct: purchased Carna Biosciences (QuickScout service)
T13 sequence (Q06418 41-890): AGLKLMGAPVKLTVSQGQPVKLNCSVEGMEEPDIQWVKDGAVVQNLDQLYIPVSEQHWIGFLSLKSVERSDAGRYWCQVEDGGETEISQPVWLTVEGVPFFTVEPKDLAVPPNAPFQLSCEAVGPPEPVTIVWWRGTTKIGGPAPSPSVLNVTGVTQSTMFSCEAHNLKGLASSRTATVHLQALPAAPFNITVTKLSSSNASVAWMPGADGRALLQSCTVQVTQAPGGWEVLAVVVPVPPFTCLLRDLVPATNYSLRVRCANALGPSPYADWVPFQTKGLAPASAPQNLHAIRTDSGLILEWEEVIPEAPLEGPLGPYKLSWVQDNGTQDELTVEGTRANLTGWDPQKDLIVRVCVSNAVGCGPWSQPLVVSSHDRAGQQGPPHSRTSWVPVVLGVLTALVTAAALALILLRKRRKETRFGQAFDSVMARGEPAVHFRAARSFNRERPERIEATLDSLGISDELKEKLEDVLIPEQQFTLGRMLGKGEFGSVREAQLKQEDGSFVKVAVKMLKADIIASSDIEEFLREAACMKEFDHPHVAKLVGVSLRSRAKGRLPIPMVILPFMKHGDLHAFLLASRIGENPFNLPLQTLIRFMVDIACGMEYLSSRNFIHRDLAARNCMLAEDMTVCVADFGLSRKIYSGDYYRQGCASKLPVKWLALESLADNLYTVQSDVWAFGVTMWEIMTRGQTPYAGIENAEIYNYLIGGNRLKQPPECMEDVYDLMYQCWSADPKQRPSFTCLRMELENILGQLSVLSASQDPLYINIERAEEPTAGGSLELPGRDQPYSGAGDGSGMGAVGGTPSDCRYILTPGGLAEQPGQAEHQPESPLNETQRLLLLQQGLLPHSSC
From the text: as §2

MET = target: T14, MET (Homo sapiens, UniProt P08581); experiment: QuickScout ELISA kinase panel; format: biochemical; details: Compound 5 at 10 nM
T14 construct: purchased Carna Biosciences (QuickScout service)
T14 sequence (P08581 25-1390): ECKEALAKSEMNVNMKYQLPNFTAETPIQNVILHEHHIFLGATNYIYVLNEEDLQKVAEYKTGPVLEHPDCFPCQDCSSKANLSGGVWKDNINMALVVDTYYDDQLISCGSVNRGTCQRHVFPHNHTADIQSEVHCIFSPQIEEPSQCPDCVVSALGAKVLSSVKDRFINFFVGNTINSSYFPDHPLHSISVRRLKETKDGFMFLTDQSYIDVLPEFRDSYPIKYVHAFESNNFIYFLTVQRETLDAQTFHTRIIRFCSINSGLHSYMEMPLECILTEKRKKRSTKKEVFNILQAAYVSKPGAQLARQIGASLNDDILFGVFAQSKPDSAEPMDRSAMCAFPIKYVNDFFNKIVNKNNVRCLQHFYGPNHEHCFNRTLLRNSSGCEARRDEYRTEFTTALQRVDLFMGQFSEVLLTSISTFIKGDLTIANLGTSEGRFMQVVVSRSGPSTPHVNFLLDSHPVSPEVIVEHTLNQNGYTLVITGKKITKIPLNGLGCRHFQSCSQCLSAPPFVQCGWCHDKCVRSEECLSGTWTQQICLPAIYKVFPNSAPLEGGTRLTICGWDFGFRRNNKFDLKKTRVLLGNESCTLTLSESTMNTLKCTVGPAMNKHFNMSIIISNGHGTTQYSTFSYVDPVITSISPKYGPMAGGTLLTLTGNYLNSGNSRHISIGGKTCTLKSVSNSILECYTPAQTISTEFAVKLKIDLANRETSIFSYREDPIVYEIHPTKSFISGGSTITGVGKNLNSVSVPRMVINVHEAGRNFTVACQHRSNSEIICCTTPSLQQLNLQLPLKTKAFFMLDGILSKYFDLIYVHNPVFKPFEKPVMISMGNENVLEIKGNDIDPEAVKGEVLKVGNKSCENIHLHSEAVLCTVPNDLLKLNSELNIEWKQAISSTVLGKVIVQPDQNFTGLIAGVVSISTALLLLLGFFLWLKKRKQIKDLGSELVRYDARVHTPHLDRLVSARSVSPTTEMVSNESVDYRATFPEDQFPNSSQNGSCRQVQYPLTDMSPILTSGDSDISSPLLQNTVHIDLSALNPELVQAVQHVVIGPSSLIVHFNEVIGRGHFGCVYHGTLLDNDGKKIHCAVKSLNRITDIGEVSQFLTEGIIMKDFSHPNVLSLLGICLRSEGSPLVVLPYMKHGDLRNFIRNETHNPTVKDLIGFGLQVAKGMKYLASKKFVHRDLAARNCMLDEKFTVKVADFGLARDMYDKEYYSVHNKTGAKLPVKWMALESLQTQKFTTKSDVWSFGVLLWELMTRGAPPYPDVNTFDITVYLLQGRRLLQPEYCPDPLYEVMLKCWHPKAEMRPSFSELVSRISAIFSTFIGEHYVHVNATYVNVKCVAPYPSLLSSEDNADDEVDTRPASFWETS
From the text: as §2

FLT3 = target: T15, FLT3 (Homo sapiens, UniProt P36888); experiment: QuickScout ELISA kinase panel; format: biochemical; details: Compound 5 at 10 nM
T15 construct: purchased Carna Biosciences (Kobe, Japan), QuickScout service
From the text: as §2

PDGFR— = target: T16, PDGFR— (Homo sapiens, UniProt P16234); experiment: QuickScout ELISA kinase panel; format: biochemical; details: Compound 5 at 10 nM
T16 construct: purchased Carna Biosciences (Kobe, Japan), QuickScout service
T16 sequence (P16234 550-1089 limits assumed): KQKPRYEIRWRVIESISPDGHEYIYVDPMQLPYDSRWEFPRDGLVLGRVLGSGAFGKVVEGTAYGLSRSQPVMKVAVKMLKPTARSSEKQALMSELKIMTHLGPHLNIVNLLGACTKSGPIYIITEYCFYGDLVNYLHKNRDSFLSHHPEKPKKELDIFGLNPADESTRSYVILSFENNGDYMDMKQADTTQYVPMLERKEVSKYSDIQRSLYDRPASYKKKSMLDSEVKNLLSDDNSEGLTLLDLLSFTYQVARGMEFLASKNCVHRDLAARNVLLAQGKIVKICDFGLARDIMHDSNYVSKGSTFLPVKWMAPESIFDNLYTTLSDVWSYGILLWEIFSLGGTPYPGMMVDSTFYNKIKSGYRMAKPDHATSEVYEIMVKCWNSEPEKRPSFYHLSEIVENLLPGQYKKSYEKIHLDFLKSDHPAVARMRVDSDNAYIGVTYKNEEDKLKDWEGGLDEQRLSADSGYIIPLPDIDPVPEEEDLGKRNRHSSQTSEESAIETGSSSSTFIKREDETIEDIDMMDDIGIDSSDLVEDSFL
From the text: as §2

JAK3 = target: T17, JAK3 (Homo sapiens, UniProt P52333); experiment: QuickScout ELISA kinase panel; format: biochemical; details: Compound 5 at 10 nM
T17 construct: purchased Carna Biosciences (QuickScout service)
From the text: as §2

TEC = target: T18, TEC (Homo sapiens, UniProt P42680); experiment: QuickScout ELISA kinase panel; format: biochemical; details: Compound 5 at 10 nM
T18 construct: purchased Carna Biosciences (Kobe, Japan), QuickScout service
T18 sequence (P42680 1-631): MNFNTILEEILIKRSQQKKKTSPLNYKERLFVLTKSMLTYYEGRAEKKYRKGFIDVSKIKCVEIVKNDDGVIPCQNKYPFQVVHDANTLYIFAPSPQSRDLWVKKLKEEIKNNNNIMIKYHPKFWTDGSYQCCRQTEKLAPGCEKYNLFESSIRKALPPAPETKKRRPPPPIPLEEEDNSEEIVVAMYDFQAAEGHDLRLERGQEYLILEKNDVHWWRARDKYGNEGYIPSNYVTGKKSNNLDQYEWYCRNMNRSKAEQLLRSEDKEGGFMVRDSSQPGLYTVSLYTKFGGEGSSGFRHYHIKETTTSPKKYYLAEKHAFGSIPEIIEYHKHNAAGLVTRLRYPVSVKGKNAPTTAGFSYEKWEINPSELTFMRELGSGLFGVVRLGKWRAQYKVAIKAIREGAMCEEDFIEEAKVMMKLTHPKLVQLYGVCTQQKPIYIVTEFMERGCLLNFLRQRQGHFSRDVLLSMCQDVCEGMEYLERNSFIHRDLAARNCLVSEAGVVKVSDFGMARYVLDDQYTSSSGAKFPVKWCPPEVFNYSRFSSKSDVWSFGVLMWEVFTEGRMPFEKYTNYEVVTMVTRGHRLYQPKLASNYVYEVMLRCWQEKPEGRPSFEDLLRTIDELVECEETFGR
From the text: as §2

EphA2 = target: T19, EphA2 (Homo sapiens, UniProt P29317); experiment: QuickScout ELISA kinase panel; format: biochemical; details: Compound 5 at 10 nM
T19 construct: purchased Carna Biosciences (QuickScout service)
From the text: as §2

## Cc1nc(Nc2ncc(C(=O)Nc3c(C)cccc3Cl)s2)cc(N2CCN(CCF)CC2)n1 [Compound 5, N-(2-Chloro-6-methylphenyl)-2-(6-(4-(2-fluoroethyl)piperazin-1-yl)-2-methylpyrimidin-4-ylamino)thiazole-5-carboxamide]
[1]
  protein bound in serum: 98.5±1.0%
ABL
  IC50: 9.1 ± 0.8 nM
SYK
  inhibition at 0.01 µM: 4.5%
KDR
  inhibition at 0.01 µM: -5.6%
KIT
  IC50: < 2 nM
KIT; Compound 5 at 10 nM
  inhibition at 0.01 µM: > 97%
KIT; Compound 5 at 10 nM, 0.01 µM
  % Inhibition of Kinase Activity, KIT: 98.7%
FAK
  inhibition at 0.01 µM: -18.3%
EGFR
  inhibition at 0.01 µM: 27.2%
TIE2
  inhibition at 0.01 µM: -51.7%
IGF1R
  inhibition at 0.01 µM: 5.9%
FGFR1
  inhibition at 0.01 µM: 20.4%
TRKA
  inhibition at 0.01 µM: -0.9%
CSK
  inhibition at 0.01 µM: 95.2%
EphB4
  inhibition at 0.01 µM: 97%
ACK
  inhibition at 0.01 µM: 83.1%
TYRO3
  inhibition at 0.01 µM: 23.1%
MET
  inhibition at 0.01 µM: 7.2%
FLT3
  inhibition at 0.01 µM: 0.3%
PDGFR—
  inhibition at 0.01 µM: 86%
JAK3
  inhibition at 0.01 µM: 16%
TEC
  inhibition at 0.01 µM: 98.1%
EphA2
  inhibition at 0.01 µM: 98.1%
